Source: patent US6967197B2, “Thiazepinyl hydroxamic acid derivatives as matrix metalloproteinase inhibitors” (Fujisawa Pharmaceutical Co., Ltd., priority 2000, dated 2005)

Biological target: T1, human MMP-9 (Homo sapiens, UniProt P14780)
T1 construct: purchased Yagai, Japan
Assay: Inhibitory activity of human MMP-9
Format: biochemical
Settings: commercial kit (Yagai, Japan); degradation of FITC-labeled bovine type IV collagen after incubation for 4 hours at 42° C.
Description: Inhibitory Activity of Human MMP-9
The inhibitory activity of test compounds against human MMP-9 were measured by using commercial kits (Yagai, Japan). Gelatinolytic activity was determined by monitoring the degradation of FITC-labeled bovine type IV collagen after incubation for 4 hours at 42° C. The amount of degraded collagen was estimated by measuring the fluorescence intensity at 495 nm (excitation) and 520 nm (emission).
Inhibitory activity of human MMP-9 as mentioned above.

T1 sequence (P14780 94-707): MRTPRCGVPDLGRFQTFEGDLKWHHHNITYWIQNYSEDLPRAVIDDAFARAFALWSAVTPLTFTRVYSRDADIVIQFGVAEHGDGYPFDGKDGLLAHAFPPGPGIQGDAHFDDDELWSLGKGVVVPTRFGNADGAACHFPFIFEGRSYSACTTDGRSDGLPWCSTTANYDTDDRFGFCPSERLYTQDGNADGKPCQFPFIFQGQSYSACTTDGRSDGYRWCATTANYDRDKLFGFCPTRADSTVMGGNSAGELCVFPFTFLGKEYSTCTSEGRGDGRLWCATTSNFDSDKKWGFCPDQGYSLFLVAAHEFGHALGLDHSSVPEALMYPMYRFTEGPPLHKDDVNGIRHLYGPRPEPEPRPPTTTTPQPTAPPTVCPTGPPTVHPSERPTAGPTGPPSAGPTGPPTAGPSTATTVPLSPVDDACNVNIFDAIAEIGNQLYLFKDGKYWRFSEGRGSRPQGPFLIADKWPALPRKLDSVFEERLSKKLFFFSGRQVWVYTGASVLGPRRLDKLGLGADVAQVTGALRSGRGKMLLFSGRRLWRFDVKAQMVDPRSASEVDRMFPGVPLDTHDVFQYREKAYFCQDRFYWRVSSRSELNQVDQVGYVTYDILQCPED

IC50: 2.85 nM
Compound: COc1ccc(-c2ccc(C3(CC(=O)NO)CCN(S(C)(=O)=O)CCS3(=O)=O)s2)cc1 (stereo not shown) [Example 17, N-hydroxy-2-[7-(5-(4-methoxyphenyl)-2-thienyl)-4-methanesulfonyl-1,1-dioxoperhydro-1,4-thiazepin-7-yl]acetamide]
